Laboratory results taken from patent US5334595A, “Pyrazoloquinolones as anticancer agents” (priority 1992, dated 1994).

Tests used:
[1] = In vivo antitumor assay, P388(iv); set-up: species or system mice; conditions: mouse, in vivo, drug iv, qd 1-3, exp 1155A
From the text: (§1) Mice: Inbred: C3H/He and NCR-nu; and Hybrids: B6D2F1 (C57BL/6 females×DBA/2 males, CD2F1 (Balb/c females×DBS/2 males) and B6C3fl (C57BL/6×C3H) were bred at Wayne State University from strains obtained from the Frederick Cancer Research Facility, Frederick, Maryland or purchased from commercial suppliers.
(§2) Tumors: Murine Tumor: P388 and an adriamycin-resistant (ADR) subline P388/ADR leukemia and the following transplantable solid tumors of mice were used for in vivo testing: B16 melanoma (B16), pancreatic ductal adenocarcinoma No. 03 (Pane 03), colon adenocarcinoma No. 38 (colo 38), lung carcinoma No. 12 (LC 12), mammary ductal adenocarcinoma No. 16/C (Mam16C) and an adriamycin-resistant subline Mam16C/ADR. Human tumor: A single human tumor, mammary carcinoma MX-1 was used for in vivo testing. All tumors are in the Developmental Therapeutics Program frozen tumor respository, maintained by the Biological Testing Branch, Frederick Maryland. Each has a detailed description, code identification number, and list of references at the National Tumor Repository. Murine tumors were maintained in the mouse strain of origin and were transplanted in the appropriate F1 hydrid (or the strain of origin) for therapy trials. […]
(§3) Quantitative end points used to assess antitumor activity included % Increased Life Span (% ILS), Tumor Cell Kill (Log10 kill), and Tumor Growth Inhibition (T/C). […]
(§4) Endpoints were calculated as follows: [formula] where Dt is the median day of death for treated and Dc is the median day of death for control groups. […] Minimum quantitative activity limits for additional P388 models (e.g. P388/ADR and P388, IV) have not been defined. […]
(§5) The log10 cell kill was calculated from the following formula: [formula] where T-C is the tumor difference in the median day of death between the treated (T) and the control (C) groups and Td is the tumor doubling time (in days), the latter estimated from the best fit straight line from a log-linear growth plot of the control-group tumors in exponential growth. […]

P388 leukemia = test: In vivo antitumor assay, P388(iv); set-up: species or system mice; conditions: drug iv, qd 1-3, exp 1155A
From the text: as §1, §2, §3, §4, §5

Cc1cc(-c2c(F)cc3c4nn(CCN(C)C)c(=O)c-4cn(C4CC4)c3c2F)cc(C)n1.O=C(O)/C=C/C(=O)O [Example 1, 5-Cyclopropyl-6,8-difluoro-2,5-dihydro-2-[2-(dimethylamino)-ethyl]-7-(2,6-dimethyl-4-pyridinyl)-3H-pyrazolo[4,3-c]quinolin-3-one (E)-2-butendioate (1:1)]
MTD [1]: 37 mg/kg | ILS % (P388 leukemia): 82% | Log Kill (P388 leukemia): 5.4
